Data reported in publication PMC7721636 (Metabolic Engineering Communications, 2020).

Target: T1, Prk (Synechocystis sp. PCC 6803, UniProt P37101)
T1 sequence (P37101 1-332): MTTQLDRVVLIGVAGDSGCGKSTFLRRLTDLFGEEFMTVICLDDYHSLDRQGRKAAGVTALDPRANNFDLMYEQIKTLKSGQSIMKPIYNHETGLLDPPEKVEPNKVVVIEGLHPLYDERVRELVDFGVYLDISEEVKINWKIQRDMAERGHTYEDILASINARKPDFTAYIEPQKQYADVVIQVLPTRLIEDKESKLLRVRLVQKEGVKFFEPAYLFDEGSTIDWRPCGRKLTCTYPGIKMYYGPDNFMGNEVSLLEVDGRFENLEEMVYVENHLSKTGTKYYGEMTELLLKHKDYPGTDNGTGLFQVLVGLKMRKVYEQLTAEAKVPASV
Test: coupled pyruvate kinase/lactate dehydrogenase assay, NADH at […] nm
Format: biochemical

Ki: 1450 ± 130 µM
SMILES: O=C(O)C[C@H](C(=O)O)[C@@H](O)C(=O)O [isocitrate]
